Legend:
GPR39 KO mice = assay: glucose tolerance test in GPR39 KO mouse model induced by a high-fat diet; format: in vivo; conditions: 16, 17 and 18-week-old GPR39 KO mice, high-fat feed, 0.5, 1, 5 and 10 mg/kg subcutaneously
Experimental: In addition, the glucose tolerance level in the GPR39 KO mouse model induced by a high-fat diet according to the HKFY derivative treatment was analyzed (FIG. 91).
Specifically, obesity was induced by providing male GPR39 KO mice (6 to 7-week-old, Central Lab. Animal Inc.) with a high-fat feed (60% fat chow) for 5-6 weeks. HKFY-34 was administered subcutaneously at a concentration of 0.5, 1, 5 and 10 mg/kg, respectively, to the 16, 17 or 18-week-old GPR39 KO mice, in which obesity was induced. After 30 minutes, glucose (1.5 g/kg) was intraperitoneally administered. After 0, 15, 30, 45, 60, 90, 120 and 180 minutes, blood was collected from the tail of the mice, and the blood glucose was measured with a blood glucose meter (acc-check, Roche, Germany) to analyze the glucose tolerance.

[1] = tested on: HSL, ATGL and Perilipin A in 3T3-L1 cells; assay: mRNA expression of lipolysis signaling factors by RT-PCR in 3T3-L1 cells; format: cell-based; conditions: versus isoproterenol positive control
Experimental: (§1) In addition, the mRNA expression levels of HSL (hormone-sensitive lipase), ATGL (adipose triglyceride lipase) and Perilipin A, which are important factors for lipolysis signaling according to HKFY-34 treatment, were analyzed through RT-PCR (FIG. 79). […] In addition, it was confirmed that the mRNA expression of all factors was enhanced due to GPR39 through GPR39 siRNA (FIGS. 81 to 83).

db/db mice [2] = assay: drop in blood glucose level in mouse model of diabetes mellitus disease; format: in vivo
Experimental: The drop in blood glucose level in a mouse model of diabetes mellitus disease according to the HKFY derivative treatment was analyzed (FIG. 92).
Specifically, HKFY-34 was subcutaneously administered at a concentration of 0.5, 1, 5 and 10 mg/kg, respectively, to male db/db mice (5 to 7-week-old), which is a mouse model of diabetes mellitus disease. After 0, 1, 2, 4, 6, 8, 12, 18 and 24 hours, blood was collected from the tail of the mice, and the blood glucose was measured with a blood glucose meter (acc-check, Roche, Germany) to confirm the anti-diabetic effect.

[3] = tested on: pERK and pPKA in 3T3-L1 cells; assay: pERK and pPKA expression by western blot in 3T3-L1 cells; format: cell-based; conditions: FIG. 85
Experimental: In order to analyze the mechanism of lipolytic ability according to the HKFY derivative treatment in 3T3-L1 cells and WAT cells, the expression levels of pERK and pPKA were analyzed (FIGS. 85 and 86).
Specifically, protein was purified from 3T3L-1 cells (Korea Cell Line Bank) and WAT (tissue culture using mice purchased from Central Lab. Animal Inc.) treated with the HKFY derivatives, and then each antibody for pERK, ERK, pPKA, and PKA expressed in mice was used, and the expression level of each protein due to the derivatives was measured through western blot.

Irs2 and Ins2 = assay: mRNA expression levels of Irs2 and Ins2 by RT-PCR; format: cell-based
Experimental: The mRNA expression levels of Irs2 and Ins2, which are important factors for proliferation and differentiation of pancreatic beta cells, were analyzed through RT-PCR (FIG. 77).

db/db mice [4] = assay: glucose tolerance test in mouse model of diabetes mellitus disease; format: in vivo; conditions: db/db mice, 0.5, 1, 5 and 10 mg/kg subcutaneously, glucose 1.5 g/kg i.p. after 30 minutes
Experimental: The glucose tolerance level in a mouse model of diabetes mellitus disease according to the HKFY derivative treatment was analyzed (FIG. 87).
Specifically, male db/db mice (5 to 7-week-old, Central Lab. Animal Inc.), which is a mouse model of diabetes mellitus disease, were fasted for 16 hours, and then HKFY-34 was administered subcutaneously at a concentration of 0.5, 1, 5 and 10 mg/kg, respectively. After 30 minutes, glucose (1.5 g/kg) was intraperitoneally administered. After 0, 15, 30, 45, 60, 90, 120 and 180 minutes, blood was collected from the tail of the mice, and the blood glucose was measured with a blood glucose meter (acc-check, Roche, Germany) to analyze the glucose tolerance.

GPR39 = biological target: T1, GPR39 (Homo sapiens, UniProt O43194); assay: calcium influx assay system (aequorin) in CV-1 cells; format: cell-based; set-up: host or cells: CV-1 fibroblast cell line, lipofectamine transfection; conditions: CV-1 cells transfected with human GPR39, Gαq, 6 hours
T1 sequence (O43194 1-453): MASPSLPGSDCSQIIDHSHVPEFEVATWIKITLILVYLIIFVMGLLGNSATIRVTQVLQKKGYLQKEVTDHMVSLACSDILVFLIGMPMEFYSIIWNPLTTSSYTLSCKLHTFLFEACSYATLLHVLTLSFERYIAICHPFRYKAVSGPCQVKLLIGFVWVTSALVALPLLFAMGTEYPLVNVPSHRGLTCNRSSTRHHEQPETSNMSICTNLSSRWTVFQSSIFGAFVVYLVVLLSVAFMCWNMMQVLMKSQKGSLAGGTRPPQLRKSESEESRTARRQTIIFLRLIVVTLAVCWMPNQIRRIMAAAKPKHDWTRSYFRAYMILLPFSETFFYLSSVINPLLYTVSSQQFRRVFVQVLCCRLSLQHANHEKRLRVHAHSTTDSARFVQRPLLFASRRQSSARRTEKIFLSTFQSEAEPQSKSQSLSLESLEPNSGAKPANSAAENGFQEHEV

[5] = tested on: HSL, ATGL and Perilipin A in WAT cells; assay: mRNA expression of lipolysis signaling factors by RT-PCR in WAT; format: cell-based, mice; conditions: versus isoproterenol positive control
Experimental: as §1

rat islet = assay: glucose-dependent insulin secretion in isolated rat islets (rat insulin ELISA); format: cell-based; conditions: 1 nM to 100 μM, 2.8 mM or 28 mM glucose
Experimental: In addition, the glucose-dependent insulin secretion ability of the HKFY derivative for rat islet was confirmed (FIG. 76).
Specifically, the pancreas was extracted from a 8-week-old SD rat (Damul Science), and islets were isolated. The isolated islets were treated with HKFY-34 at different concentrations (1 nM, 10 nM, 100 nM, 1 μM, 10 μM and 100 μM) in 2.8 mM or 28 mM glucose, and then the amount of the secreted insulin was measured using a rat insulin ELISA.

CCCCCCCC(=O)NCCCC[C@H](NC(=O)[C@@H](N)Cc1cn(C(c2ccccc2)c2ccccc2)cn1)C(=O)N[C@H](Cc1ccc(C)cc1)C(=O)N[C@@H](Cc1ccc(O)cc1)C(=O)O [HKFY-34, ((R)-2-((S)-2-((S)-2-amino-3-(1-benzhydryl-1H-imidazol-4-yl)propanamido)-6-octanamidohexanamido)-3-(p-tolyl)propanoyl)-L-tyrosine] was tested, and the glucose tolerance (GPR39 KO mice) was “significant glucose tolerance was not observed”, the “mRNA expression of ATGL” value [1] was “increased to a degree similar to that of isoproterenol” and the “mRNA expression of HSL” value [1] was “increased to a degree similar to that of isoproterenol”. For the same compound, the “mRNA expression of Perilipin A” value [1] was “increased to a degree similar to that of isoproterenol”, the “effect of drop in blood glucose level” value (db/db mice [2]; db/db mice, 0.5, 1, 5 and 10 mg/kg subcutaneously, 0 to 24 hours) was “exhibited in a concentration-dependent manner” and the “effect of drop in blood glucose” value (db/db mice [2]; db/db mice, 5 and 10 mg/kg) was “significantly increased”. The “expression of pERK compared to ERK” value [3] was “increased”, the “expression of pPKA compared to PKA” value [3] was “increased” and the “mRNA expression of Ins2” value (Irs2 and Ins2; GPR39 siRNA treated group) was “hardly achieved”. The “mRNA expression of Irs2” value (Irs2 and Ins2; GPR39 siRNA treated group) was “hardly achieved”, the “mRNA expression level of Ins2” value (Irs2 and Ins2; RT-PCR, FIG. 77) was “increased” and the “mRNA expression level of Irs2” value (Irs2 and Ins2; RT-PCR, FIG. 77) was “increased”. For the same compound, the glucose tolerance (db/db mice [4]) was “significant glucose tolerance in a concentration dependent manner”, the “Ca2+ influx assay ECmax (-fold induction over basal)” value (GPR39) was 2.4 ± 4.59 -fold induction over basal and the EC50 (GPR39; read-out: Ca2+ influx assay EC50) was 2.7 ± 0.5 nM. For the same compound, the “mRNA expression of ATGL” value [5] was “increased to a degree similar to that of isoproterenol”, the “mRNA expression of HSL” value [5] was “increased to a degree similar to that of isoproterenol” and the “mRNA expression of Perilipin A” value [5] was “increased to a degree similar to that of isoproterenol”. The insulin secretion ability (rat islet) was “concentration dependent (dose-dependent) manner”.

Source: patent publication US20230212222A1 (ANYGEN CO., LTD., priority 2020, published 2023)
